Residues, ends and D or L forms follow the SMILES beside them. No end group written: not given here.
T1: GPR139 (Homo sapiens, UniProt Q6DWJ6)
T1 construct: hIL-2Ra signal peptide (N); expressed in transfected cells
T1 sequence (Q6DWJ6 2-353 limits assumed): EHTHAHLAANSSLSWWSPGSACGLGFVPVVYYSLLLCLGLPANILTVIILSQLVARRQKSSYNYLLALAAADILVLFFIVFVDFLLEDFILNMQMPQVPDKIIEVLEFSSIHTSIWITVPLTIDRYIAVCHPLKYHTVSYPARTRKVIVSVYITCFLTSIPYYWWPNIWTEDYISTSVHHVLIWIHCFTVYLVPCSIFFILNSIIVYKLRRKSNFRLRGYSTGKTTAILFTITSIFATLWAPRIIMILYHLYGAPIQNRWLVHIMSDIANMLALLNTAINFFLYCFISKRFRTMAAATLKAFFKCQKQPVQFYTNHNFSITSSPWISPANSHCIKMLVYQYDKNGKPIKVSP

T2: GPR1 (Homo sapiens, UniProt P46091)
T2 sequence (P46091 1-355): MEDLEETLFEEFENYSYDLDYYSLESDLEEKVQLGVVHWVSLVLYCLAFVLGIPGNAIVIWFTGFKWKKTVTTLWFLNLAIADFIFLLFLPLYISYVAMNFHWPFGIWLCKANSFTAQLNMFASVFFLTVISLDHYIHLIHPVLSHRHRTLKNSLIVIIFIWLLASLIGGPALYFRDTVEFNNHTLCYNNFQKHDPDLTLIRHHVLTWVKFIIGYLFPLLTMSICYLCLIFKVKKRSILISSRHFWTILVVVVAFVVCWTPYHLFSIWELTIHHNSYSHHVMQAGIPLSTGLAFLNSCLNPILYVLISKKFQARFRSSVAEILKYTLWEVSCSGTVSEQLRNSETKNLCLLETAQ

T3: bombesin receptor 3 (human) (UniProt P32247)
T3 sequence: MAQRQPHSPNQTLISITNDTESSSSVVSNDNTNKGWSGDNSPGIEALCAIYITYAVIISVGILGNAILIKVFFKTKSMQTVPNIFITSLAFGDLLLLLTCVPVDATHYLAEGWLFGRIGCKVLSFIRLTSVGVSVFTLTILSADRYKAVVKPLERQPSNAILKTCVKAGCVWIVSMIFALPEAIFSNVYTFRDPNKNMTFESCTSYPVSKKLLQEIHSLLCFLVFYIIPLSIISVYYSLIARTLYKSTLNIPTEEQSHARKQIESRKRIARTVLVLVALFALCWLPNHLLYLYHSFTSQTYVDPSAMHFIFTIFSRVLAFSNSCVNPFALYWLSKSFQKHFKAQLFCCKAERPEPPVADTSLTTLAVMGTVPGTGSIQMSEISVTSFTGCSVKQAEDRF


Assays:
GPR139 [1] = molecular target: T1, GPR139; assay: IP1 accumulation; format: cell-based; settings: mean, SEM and n, read-out: pEC50, IP1 (converted)
Description: Supplement mmc7.xlsx, sheet "Peptide validation data" | column: Emax; pEC50

GPR139 [2] = molecular target: T1, GPR139; assay: Repeat of proposed literature pairing (mass redistribution and/or internalization); format: cell-based; settings: GPR139; mean, SEM and n; read-out: pEC50, DMR (peak) (converted)
Description: DMR assays provide a single integrated readout of ligand-dependent cellular response, utilizing an optical biosensor in specialized microplates to detect wavelength shifts of reflected light as it passes through the biosensor and the lower portion of the cell (∼150-200 nm). As a signal pathway agnostic approach, DMR assays are well-suited to the study of GPCRs ([Fang et al., 2008], [Schröder et al., 2011]). The mass redistribution response (Δ picometer (pm)) likely reflects a number of intracellular events, including cytoskeletal rearrangement, protein trafficking and receptor internalization. Orphan receptor-expressing cells were gently washed twice with assay buffer (HBSS with 1 mM CaCl2, 1 mM MgCl2, 20 mM HEPES, 0.01% pluronic F-68, pH 7.4) containing 0.1% DMSO and cells were equilibrated for 90 min at 22°C in the EPIC Benchtop (BT) System (Corning) to establish a stable DMR signal. After 3-5 min baseline recordings, peptides (10 μM) were added in duplicate wells using an electronic 384-channel Viaflo pipette (Integra Biosciences, Switzerland) and DMR responses were measured for 60 min at 22°C. 100 nM norepinephrine was included as an internal assay control to assess the cellular DMR response via endogenously-expressed adrenoceptors in the TREx 293 cells. Real-time data were processed using the BT to column converter MS-Excel macro (Corning) and analyzed in GraphPad Prism 7.0. DMR recordings in peptide screening experiments were buffer and solvent corrected and the area under the curve (AUC) was quantified. For subsequent validation experiments, peptides were diluted in assay buffer containing 0.1% DMSO and DMR assays were performed as above. […] Data represent mean ± standard error of the mean (SEM) from at least 3 biologically independent experiments.
A TR-FRET real-time internalization assay was used to examine peptide-dependent changes in orphan receptor localization as described previously ([Foster and Bräuner-Osborne, 2018]). Surface-expressed SNAP-tagged receptors were labeled with a cell-impermeable luminescent terbium cryptate (100 nM SNAP Lumi4-Tb; Cisbio, France) for 1 hr at 37°C. Cells were washed to remove excess terbium and incubated with fluorescein-O-acetic acid (100 μM; Sigma Aldrich) for 5 min at 37°C. Peptides were added as for DMR assays, and internalization responses were recorded for 60 min at 37°C using an EnVision 2104 Multimode plate reader (PerkinElmer). 100 nM GLP-1 was used as a positive control for SNAP-GLP1R internalization. Real-time internalization responses were calculated based on TR-FRET (excitation 340 nm; emission 520 nm and 615 nm), and were expressed as the ratio between donor (terbium) and acceptor (fluorescein) emission. For peptide screening analysis (both DMR and internalization assays), we calculated the area under the curve from the real-time traces. […] Validation experiments for receptor internalization were performed as above. Internalization data was processed in MS-Excel and area under the curve was used to generate concentration-response curves using GraphPad Prism 7.0. Data represent mean ± standard error of the mean (SEM) from at least 3 biologically independent experiments.

GPR1 [3] = molecular target: T2, GPR1; assay: Dynamic mass redistribution (DMR), validation; format: cell-based; set-up: host or cells: HTLA cells (HEK293-derived)
Description: (§1) Supplement mmc7.xlsx, sheet "Peptide validation data" | column: Comment

GPR1 [4] = molecular target: T2, GPR1; assay: β-arrestin recruitment (PathHunter); format: cell-based; settings: for Emax, PathHunter (fold over basal) / pEC50, PathHunter (fold over basal): GPR1, mean, SEM and n
Protocol: PathHunter eXpress Assays (DiscoverX) were performed in 384-well format according to the manufacturer’s recommendations. GPR1 cells were incubated with peptides for 90 min and luminescence measured using an EnSpire 2300 Multimode plate reader (PerkinElmer).

GPR1 [5] = molecular target: T2, GPR1; assay: β-arrestin recruitment (Tango), validation; format: cell-based; set-up: host or cells: HTLA cells (HEK293-derived)
GPR1 [6] = molecular target: T2, GPR1; assay: Real-time receptor internalization, validation; format: cell-based; set-up: host or cells: HTLA cells (HEK293-derived)
Description: as §1

human GPCRs = tested on: human GPCRs; set-up: method as in Guide to Pharmacology database; settings: receptor gasr_human (CCKBR, P32239); max reported value; ref Guide to Pharmacology database; cited from earlier work
Description: Supplement mmc1.xlsx, sheet "HumanGPCRLigands" | column: pKi_value; pKd_value; pEC50_value; pIC50_value

NPFF2 = assay: β-arrestin recruitment (Tango), known peptide receptors; format: cell-based, human; settings: endogenous ligand(s) included in peptide library
Description: Supplement mmc6.xlsx, sheet "Peptide GPCR controls" | column: Confirmed?

[7] = molecular target: T3, bombesin receptor 3 (human)

Row | Molecule | Comment on response, DMR (AUC); Emax and pEC50 n.d. (GPR1 [3]) | Emax, PathHunter (fold over basal) (GPR1 [4]) | pEC50, PathHunter (fold over basal) (GPR1 [4]) | Emax, Tango (fold over basal) (GPR1 [5]; GPR1, mean, SEM and n) | Comment on response, Internalization (AUC); Emax and pEC50 n.d. (GPR1 [6]) | also measured
1 | CSCC[C@H](NC(=O)[C@H](CO)NC(=O)[C@H](Cc1ccc(O)cc1)NC(=O)[C@@H](N)CO)C(=O)N[C@@H](CCC(=O)O)C(=O)N[C@@H](Cc1cnc[nH]1)C(=O)N[C@@H](Cc1ccccc1)C(=O)N[C@@H](CCCNC(=N)N)C(=O)N[C@@H](Cc1c[nH]c2ccccc12)C(=O)NCC(=O)N[C@@H](CCCCN)C(=O)N1CCC[C@H]1C(=O)N[C@H](C(=O)NCC(=O)N[C@@H](CCCCN)C(=O)N[C@@H](CCCCN)C(=O)N[C@@H](CCCNC(=N)N)C(=O)N[C@@H](CCCNC(=N)N)C(=O)N1CCC[C@H]1C(=O)N[C@H](C(=O)N[C@@H](CCCCN)C(=O)N[C@H](C(=O)N[C@@H](Cc1ccc(O)cc1)C(=O)N1CCC[C@H]1C(=O)N[C@@H](CC(N)=O)C(=O)NCC(=O)N[C@@H](C)C(=O)N[C@@H](CCC(=O)O)C(=O)N[C@@H](CC(=O)O)C(=O)N[C@@H](CCC(=O)O)C(=O)N[C@@H](CO)C(=O)N[C@@H](C)C(=O)N[C@@H](CCC(=O)O)C(=O)N[C@@H](C)C(=O)N[C@@H](Cc1ccccc1)C(=O)N1CCC[C@H]1C(=O)N[C@@H](CC(C)C)C(=O)N[C@@H](CCC(=O)O)C(=O)N[C@@H](Cc1ccccc1)C(=O)O)C(C)C)C(C)C)C(C)C [Corticotropin, ACTH] (H-SYSMEHFRWGKPVGKKRRPVKVYPNGAEDESAEAFPLEF-OH) |  |  |  |  |  | EC50 (GPR139 [1]): 1.15 µM; EC50 (GPR139 [2]): 0.0661 µM
2 | CSCC[C@H](NC(=O)[C@H](Cc1c[nH]c2ccccc12)NC(=O)CNC(=O)[C@H](Cc1ccc(O)cc1)NC(=O)[C@H](C)NC(=O)[C@H](CCC(=O)O)NC(=O)[C@H](CCC(=O)O)NC(=O)[C@H](CCC(=O)O)NC(=O)[C@H](CCC(=O)O)NC(=O)[C@H](CCC(=O)O)NC(=O)[C@H](CC(C)C)NC(=O)[C@H](Cc1c[nH]c2ccccc12)NC(=O)[C@@H]1CCCN1C(=O)CNC(=O)[C@@H](N)CCC(N)=O)C(=O)N[C@@H](CC(=O)O)C(=O)N[C@@H](Cc1ccccc1)C(N)=O [Peptide 118, Gastrin-17, reference compound] | No response; known CCK receptor agonist | 3.5 fold over basal | 5.24 | 9.8 fold over basal | No response; known CCK receptor agonist | EC50 (GPR1 [4]; PathHunter eXpress GPR1 cells, 90 min, luminescence, mean ± SEM of 3-4 independent experiments in triplicate, read-out: pEC50, β-arrestin recruitment (PathHunter), GPR1 (converted)): 6.31 µM; EC50 (GPR1 [5]; HTLA cells transiently transfected, overnight stimulation, luciferase, mean ± SEM of 3-4 independent experiments in triplicate, read-out: pEC50, β-arrestin recruitment (Tango), GPR1 (converted)): > 10 µM; EC50 (GPR1 [5]; pEC50, Tango (fold over basal), GPR1, mean, SEM and n): 102 µM
3 | KAPSGRMSIVKNLQNLDPSHRISDRDYMGWMDF [Peptide 194, cholecystokinin (CCK-33), reference compound] | No response; Known CCK receptor agonist | 5.7 fold over basal | 8.01 | 15.0 fold over basal | No response; Known CCK receptor agonist | pEC50, Tango (fold over basal) (GPR1 [5]; GPR1, mean, SEM and n): 5.28; pIC50_value (human GPCRs): 8.8
4 | KRSFSGFGSPLDRLSAGSVDHK [Processed Osteocrin_(-2-19)] | No response | 8.0 fold over basal | 6.18 | 14.4 fold over basal | No response | pEC50, Tango (fold over basal) (GPR1 [5]; GPR1, mean, SEM and n): 5.60
5 | Neuropeptide RFRP-1 (MPHSFANLPLRF-NH2) |  |  |  |  |  | Confirmed? (confirmation of b-arrestin recruitment) (NPFF2): No
6 | Neuropeptide SF (SQAFLFQPQRF-NH2) |  |  |  |  |  | Confirmed? (confirmation of b-arrestin recruitment) (NPFF2): No
7 | GNLWATGHFM [neuromedin B] |  |  |  |  |  | pEC50 of neuromedin B responses in G (q/11) signaling assays (IP1 generation) [7]: 6.39 pEC50; pEC50 of neuromedin B responses in mass redistribution [7]: 7.43 pEC50

— PMC6838683, “Discovery of Human Signaling Systems: Pairing Peptides to G Protein-Coupled Receptors” (Cell, 2019)
